The values below are quoted from earlier work in US20160243040A1, “Pharmaceutical Composition with Antiinflammatory Agents and Production Process” (LABORATORIO RAAM DE SAHUAYO, S.A. DE C.V., priority 2013, published 2016).

The conditions of data set [1]: relative potency, cortisol = 1.
For data set [2] the following is noted: applies only to oral or intravenous use.
The conditions of data set [3]: relative potency, cortisol = 1. The source holds these as a separate data set.
For data set [4] the following is noted: class by biological half-life.

Take `C[C@H]1C[C@@H]2[C@H]([C@@H](O)C[C@@]3(C)[C@H]2CC[C@]3(O)C(=O)CO)[C@@]2(C)C=CC(=O)C=C12` [6α-methyl prednisolone]: the Anti-inflammatory potency in data set [1] is reported as 5. The Dose equivalents in data set [2] is listed as 4 mg. In addition, the “Potency to retain Na+” value in data set [3] is recorded as 0.5. In data set [4], the Duration of action result is on record as “I (I, intermediate (Biological half-life of 12-36 h))”.
Turning to `C[C@]12CCC(=O)C=C1CC[C@H]1[C@@H]3CC[C@](O)(C(=O)CO)[C@@]3(C)C[C@H](O)[C@@]12F` [Fludrocortisone], the Duration of action result in data set [4] is “I (I, intermediate (Biological half-life of 12-36 h))”.
`C[C@]12CCC(=O)C=C1CC[C@@H]1[C@@H]2C(=O)C[C@@]2(C)[C@H]1CC[C@]2(O)C(=O)CO` [Cortisone]: in data set [1], the Anti-inflammatory potency was 0.8. Moreover, the Dose equivalents in data set [2] is recorded as 25 mg. For the same compound, in data set [3], the “Potency to retain Na+” value is 0.8. In addition, the Duration of action result in data set [4] is listed as “B (B, short (Biological half-life of 8-12 h))”.
Consider `C[C@H]1C[C@H]2[C@@H]3CCC4=CC(=O)C=C[C@]4(C)[C@@]3(F)[C@@H](O)C[C@]2(C)[C@@]1(O)C(=O)CO` [Betamethasone], for which the Duration of action result in data set [4] is given as “P (P, prolonged (Biological half-life of 36 to 72 h))”.
Regarding `C[C@]12C=CC(=O)C=C1CC[C@H]1[C@@H]3C[C@@H](O)[C@](O)(C(=O)CO)[C@@]3(C)C[C@H](O)[C@@]12F` [Tiamcinolone], in data set [1], the Anti-inflammatory potency was 5. For the same compound, the Dose equivalents in data set [2] is 4 mg. Besides, in data set [3], the “Potency to retain Na+” value is 0. Besides, the Duration of action entry in data set [4] is reported as “I (I, intermediate (Biological half-life of 12-36 h))”.
With `C[C@]12C=CC(=O)C=C1CC[C@@H]1[C@@H]2[C@@H](O)C[C@@]2(C)[C@H]1CC[C@]2(O)C(=O)CO` [Prednisolone], the Anti-inflammatory potency in data set [1] was 4. Besides, in data set [2], the Dose equivalents was 5 mg. In addition, the “Potency to retain Na+” value in data set [3] was 0.8. In addition, the Duration of action entry in data set [4] is recorded as “I (I, intermediate (Biological half-life of 12-36 h))”.
Take `C[C@@H]1C[C@H]2[C@@H]3CCC4=CC(=O)C=C[C@]4(C)[C@@]3(F)[C@@H](O)C[C@]2(C)[C@@]1(O)C(=O)CO` [Dexamethasone]: the Duration of action entry in data set [4] is “P (P, prolonged (Biological half-life of 36 to 72 h))”.
As for `C[C@]12CCC(=O)C=C1CC[C@@H]1[C@@H]2[C@@H](O)C[C@@]2(C)[C@H]1CC[C@]2(O)C(=O)CO` [Cortisol], the Anti-inflammatory potency in data set [1] is reported as 1. Further, the Dose equivalents in data set [2] is given as 20 mg. Besides, the “Potency to retain Na+” value in data set [3] is listed as 1. The Duration of action entry in data set [4] is “B (B, short (Biological half-life of 8-12 h))”.
Turning to `O=C(O)COC(=O)Cc1ccccc1Nc1c(Cl)cccc1Cl` [aceclofenac, Aceclofenac], under “mainly as aceclofenac glucuronide and diclofenac, and its hydroxy metabolites”, the “dose excreted in urine” value is “Approximately 70%”. Besides, the “tmax in presence of food” value (oral, presence of food) is 3.5 h. Further, the tmax without food (oral, without food) is 2.0 h. The elimination half-life (single dose of 100 mg) is 6.2 h.
